Data taken from PubChem BioAssay AID330 (DTP/NCI, 2004).
Values joined by “and” are separate entries in the source; they are usually repeats but may differ in a detail not shown here. Identical values can stand only once. Toxic doses and inconclusive results are not listed.

Tested on: P388 leukemia ip, CD2F1 mice, survival T/C
Assay: NCI In Vivo Anticancer Drug Screen. Data for tumor model P388 Leukemia (intraperitoneal) in CD2F1 (CDF1) mice
Conditions: endpoint: median survival time, higher = longer survival
Procedure, shortened: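 Mice carrying the transplanted tumor received test compound or vehicle. Survival was recorded in each group, and the value is the treated-group measurement divided by that of the vehicle-treated control group.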

[1] = dose: 50.0 mg/kg/injection, schedule: Q01DX005 (ip), vehicle: Klucel (hydroxypropylcellulose) (HPC)
[2] = dose: 100.0 mg/kg/injection, schedule: Q01DX005 (ip), vehicle: Klucel (hydroxypropylcellulose) (HPC)
[3] = dose: 200.0 mg/kg/injection, schedule: Q01DX005 (ip), vehicle: Klucel (hydroxypropylcellulose) (HPC)
[4] = dose: 12.5 mg/kg/injection, schedule: Q01DX005 (ip), vehicle: saline with Tween-80
[5] = dose: 25.0 mg/kg/injection, schedule: Q01DX005 (ip), vehicle: saline with Tween-80
[6] = dose: 50.0 mg/kg/injection, schedule: Q01DX005 (ip), vehicle: saline with Tween-80
[7] = dose: 50.0 mg/kg/injection, schedule: Q01DX009 (ip), vehicle: saline with Tween-80
[8] = dose: 50.0 mg/kg/injection, schedule: Q04DX003 (ip), vehicle: saline with Tween-80
[9] = dose: 100.0 mg/kg/injection, schedule: Q04DX003 (ip), vehicle: saline with Tween-80
[10] = dose: 60.0 mg/kg/injection, schedule: Q01DX005 (ip), vehicle: saline with Tween-80
[11] = dose: 120.0 mg/kg/injection, schedule: Q01DX005 (ip), vehicle: saline with Tween-80
[12] = dose: 240.0 mg/kg/injection, schedule: Q01DX005 (ip), vehicle: saline with Tween-80
[13] = dose: 6.25 mg/kg/injection, schedule: Q01DX009 (ip), vehicle: saline with Tween-80

`COc1cc2c(cc1OC)C1=[N+](CC2)C2=C(CC1)C(=O)CCC2` was tested, and the T/C (dose: 25.0 mg/kg/injection, schedule: Q01DX005 (ip), vehicle: Klucel (hydroxypropylcellulose) (HPC)) was 94 % of control, the T/C [1] was 97 % of control and the T/C [2] was 99 % of control. The T/C [3] was 93 % of control.

`Nc1nc2ccc(NCc3ccc(C(=O)NC(CCC(=O)O)C(=O)O)cc3)cc2c(=O)[nH]1` (configuration not stated) was tested, and the T/C (dose: 6.25 mg/kg/injection, schedule: Q01DX005 (ip), vehicle: saline with Tween-80) was 108 % of control, the T/C [4] was 108 % of control and the T/C [5] was 103 % of control and 108 % of control. The T/C [6] was 113 % of control and 117 % of control.

For `CCCCCCCCCC[N+]1(CC)CCCCC1`, the T/C (dose: 3.12 mg/kg/injection, schedule: Q01DX009 (ip), vehicle: saline) was 119 % of control, the T/C (dose: 6.25 mg/kg/injection, schedule: Q01DX009 (ip), vehicle: saline) was 121 % of control and the T/C (dose: 12.5 mg/kg/injection, schedule: Q01DX009 (ip), vehicle: saline) was 105 % of control.

`COC1OC2COC(c3ccccc3)OC2C(O)C1N` (configuration not stated) was tested, and the T/C (dose: 25.0 mg/kg/injection, schedule: Q01DX009 (ip), vehicle: saline with Tween-80) was 112 % of control, the T/C (dose: 25.0 mg/kg/injection, schedule: Q04DX003 (ip), vehicle: saline with Tween-80) was 100 % of control and the T/C [7] was 95 % of control. The T/C [8] was 100 % of control, the T/C (dose: 100.0 mg/kg/injection, schedule: Q01DX009 (ip), vehicle: saline with Tween-80) was 104 % of control and the T/C [9] was 100 % of control.

For `Cc1ccc(NCCNCCO)c2c(=O)c3ccc(O)cc3sc12`, the T/C [7] was 174 % of control.

For `COC(=O)CCC(=O)Nc1c(C)cccc1C(C)C`, the T/C [10] was 105 % of control, the T/C [11] was 99 % of control and the T/C [12] was 99 % of control.

For `O=C(O)Cn1ccnc1[N+](=O)[O-]`, the T/C (dose: 12.5 mg/kg/injection, schedule: Q01DX009 (ip), vehicle: distilled water + Tween-80) was 100 % of control, the T/C (dose: 25.0 mg/kg/injection, schedule: Q01DX009 (ip), vehicle: distilled water + Tween-80) was 100 % of control and the T/C (dose: 50.0 mg/kg/injection, schedule: Q01DX009 (ip), vehicle: distilled water + Tween-80) was 118 % of control. For the same compound, the T/C (dose: 100.0 mg/kg/injection, schedule: Q01DX009 (ip), vehicle: distilled water + Tween-80) was 90 % of control and the T/C (dose: 200.0 mg/kg/injection, schedule: Q01DX009 (ip), vehicle: distilled water + Tween-80) was 109 % of control.

For `Ic1cc2c(cc1C1CO1)OCO2` (configuration not stated), the T/C (dose: 100.0 mg/kg/injection, schedule: Q01DX001 (ip), vehicle: Klucel (hydroxypropylcellulose) (HPC)) was 103 % of control, the T/C (dose: 200.0 mg/kg/injection, schedule: Q01DX001 (ip), vehicle: Klucel (hydroxypropylcellulose) (HPC)) was 99 % of control and the T/C (dose: 400.0 mg/kg/injection, schedule: Q01DX001 (ip), vehicle: Klucel (hydroxypropylcellulose) (HPC)) was 96 % of control.

In the case of `COC1=CC(=[N+]2CCCCC2)CC(C)(C)C1`, the T/C (dose: 25.0 mg/kg/injection, schedule: Q01DX005 (ip), vehicle: saline) is reported as 98 % of control and the T/C (dose: 50.0 mg/kg/injection, schedule: Q01DX005 (ip), vehicle: saline) is reported as 100 % of control.

For `O=S(=O)(c1ccccc1)N(Cl)Cl`, the T/C [13] was 102 % of control and 104 % of control and 123 % of control, the T/C (dose: 12.5 mg/kg/injection, schedule: Q01DX009 (ip), vehicle: saline with Tween-80) was 104 % of control and 120 % of control and 93 % of control and the T/C [7] was 111 % of control.

`Cc1nn(-c2ccc(Cl)cc2)c2c1c(=O)[nH]c1ccccc12` was tested, and the T/C (dose: 3.75 mg/kg/injection, schedule: Q01DX005 (ip), vehicle: saline with Tween-80) was 98 % of control, the T/C (dose: 7.5 mg/kg/injection, schedule: Q01DX005 (ip), vehicle: saline with Tween-80) was 92 % of control and the T/C (dose: 15.0 mg/kg/injection, schedule: Q01DX005 (ip), vehicle: saline with Tween-80) was 87 % of control and 88 % of control. For the same compound, the T/C [10] was 87 % of control.

For `O=c1oc2c(cc1-c1ccccc1)CCc1ccccc1-2`, the T/C [1] was 102 % of control, the T/C [2] was 100 % of control and the T/C [3] was 102 % of control.

For `CC1COC(O)(C2OCOC(C3CC(=O)NC(=O)C3)C2O)C1C` (configuration not stated), the T/C (dose: 0.01 mg/kg/injection, schedule: Q01DX009 (ip), vehicle: distilled water + alcohol) was 100 % of control, the T/C (dose: 0.03 mg/kg/injection, schedule: Q01DX009 (ip), vehicle: distilled water + alcohol) was 102 % of control and the T/C (dose: 0.06 mg/kg/injection, schedule: Q01DX009 (ip), vehicle: distilled water + alcohol) was 102 % of control. For the same compound, the T/C (dose: 0.12 mg/kg/injection, schedule: Q01DX009 (ip), vehicle: distilled water + alcohol) was 102 % of control.

With `O=C1OC(C2OC(=O)C(=O)C2C(=O)c2ccc(Cl)cc2)C(C(=O)c2ccc(Cl)cc2)C1=O` (configuration not stated) the T/C (dose: 60.0 mg/kg/injection, schedule: Q01DX005 (ip), vehicle: saline + Tween-80 + alcohol) was 95 % of control, the T/C (dose: 120.0 mg/kg/injection, schedule: Q01DX005 (ip), vehicle: saline + Tween-80 + alcohol) was 92 % of control and the T/C (dose: 240.0 mg/kg/injection, schedule: Q01DX005 (ip), vehicle: saline + Tween-80 + alcohol) was 94 % of control.

For `O=[N+]([O-])c1ccc(S(=O)(=O)NCCSSCCNS(=O)(=O)c2ccc([N+](=O)[O-])cc2)cc1`, the T/C (dose: 50.0 mg/kg/injection, schedule: Q01DX009 (ip), vehicle: Klucel (hydroxypropylcellulose) (HPC)) was 90 % of control, the T/C (dose: 100.0 mg/kg/injection, schedule: Q01DX009 (ip), vehicle: Klucel (hydroxypropylcellulose) (HPC)) was 93 % of control and the T/C (dose: 200.0 mg/kg/injection, schedule: Q01DX009 (ip), vehicle: Klucel (hydroxypropylcellulose) (HPC)) was 90 % of control.

For `O=NNc1nc(-c2cccnc2)nc2ccccc12`, the T/C (dose: 1.25 mg/kg/injection, schedule: Q01DX009 (ip), vehicle: water) was 112 % of control, the T/C (dose: 2.5 mg/kg/injection, schedule: Q01DX009 (ip), vehicle: water) was 110 % of control and the T/C (dose: 5.0 mg/kg/injection, schedule: Q01DX009 (ip), vehicle: water) was 111 % of control. The T/C (dose: 10.0 mg/kg/injection, schedule: Q01DX009 (ip), vehicle: water) was 100 % of control.

`Cc1ccc([B-]23OCC[N+]2(CNC(=O)c2ccccc2O)CCO3)cc1` (configuration not stated) was tested, and the T/C [1] was 103 % of control, the T/C [2] was 108 % of control and the T/C [3] was 103 % of control.

In the case of `CC(C)c1cccc(C(C)C)c1NC(=O)N1CCCCC1`, the T/C [10] is reported as 99 % of control, the T/C [11] is reported as 93 % of control and the T/C [12] is reported as 100 % of control.

`COC(=O)c1nc(-c2ccc3c(n2)C(=O)C(N)=C(OC)C3=O)c(N)c(-c2ccc(OC)c(OC)c2O)c1C` was tested, and the T/C (dose: 1.5 mg/kg/injection, schedule: Q01DX009 (ip), vehicle: saline with Tween-80) was 100 % of control, the T/C (dose: 3.0 mg/kg/injection, schedule: Q01DX009 (ip), vehicle: saline with Tween-80) was 118 % of control and the T/C (dose: 6.0 mg/kg/injection, schedule: Q01DX009 (ip), vehicle: saline with Tween-80) was 122 % of control. For the same compound, the T/C [13] was 150 % of control and the T/C (dose: 66.0 mg/kg/injection, schedule: Q04DX003 (ip), vehicle: saline with Tween-80) was 109 % of control.

For `O=C1Nc2ccccc2/C1=N/N1C(=O)c2ccccc2C1=O`, the T/C [1] was 91 % of control, the T/C [2] was 92 % of control and the T/C [3] was 97 % of control.

In the case of `C(CCc1nn[nH]n1)CCC1CCCCC1`, the T/C [6] is reported as 96 % of control and the T/C (dose: 100.0 mg/kg/injection, schedule: Q01DX005 (ip), vehicle: saline with Tween-80) is reported as 107 % of control.

With `O=Cc1ccc(COCCO)o1` the T/C [10] was 105 % of control, the T/C [11] was 102 % of control and the T/C [12] was 102 % of control.

`COc1cc(-c2ccc(Nc3ccccc3C(=O)O)c(OC)c2)ccc1N` was tested, and the T/C [8] was 110 % of control, the T/C [9] was 150 % of control and the T/C (dose: 132.0 mg/kg/injection, schedule: Q04DX003 (ip), vehicle: saline with Tween-80) was 104 % of control.

For `C(=C\c1cc2ccc(C3=NCCN3)cc2[nH]1)/c1ccc(Oc2ccc(C3=NCCN3)cc2)cc1`, the T/C (dose: 3.12 mg/kg/injection, schedule: Q04DX003 (ip), vehicle: saline) was 108 % of control, the T/C (dose: 6.25 mg/kg/injection, schedule: Q04DX003 (ip), vehicle: saline) was 103 % of control and the T/C (dose: 12.5 mg/kg/injection, schedule: Q04DX003 (ip), vehicle: saline) was 111 % of control. For the same compound, the T/C (dose: 25.0 mg/kg/injection, schedule: Q04DX003 (ip), vehicle: saline) was 120 % of control.

`CCOC(=O)c1ccc(=O)n2c1[nH]c1ccccc12` was tested, and the T/C [4] was 105 % of control, the T/C [5] was 108 % of control and the T/C [6] was 100 % of control and 108 % of control.

In the case of `O=C1CCC2=C1C(c1ccccc1)C1=C(CCC1=O)O2`, the T/C (dose: 100.0 mg/kg/injection, schedule: Q04DX002 (ip), vehicle: Klucel (hydroxypropylcellulose) (HPC)) is reported as 100 % of control, the T/C (dose: 200.0 mg/kg/injection, schedule: Q04DX002 (ip), vehicle: Klucel (hydroxypropylcellulose) (HPC)) is reported as 100 % of control and the T/C (dose: 400.0 mg/kg/injection, schedule: Q04DX002 (ip), vehicle: Klucel (hydroxypropylcellulose) (HPC)) is reported as 111 % of control.
